{
  "source": "patent US20030232851A1",
  "about": "“Viral treatment” (The Procter & Gamble Company, priority 1999, published 2003)",
  "key": {"HIV-1 cell line, CEMIIIB": {"system": "HIV-1 cell line, CEMIIIB", "assay": "Long term in vitro study, CEMIIIB, reverse transcriptase", "type": "cell-based", "method": "A microtiter-based reveres transcriptase (RT) reaction is utilized (Buckheit et al (1991) AIDS Research and Human Retroviruses 7:295-302). Tritiated thymidine triphosphate (NEN)(TTP) is resuspended in distilled water at 5 Ci/ml. Poly rA and oligo dT are prepared as a stock solution which is kept at −20° C. The RT reaction buffer is prepared fresh on a daily basis and consists of 125 μl 1M EGTA, 125 μl water, 125 μl Triton X-100, 50 μl Tris (pH 7.4), 50 μl 1 MDDT, and 40 μl 1M MgCl2. These three solutions are mixed together in a ratio of 1 part TTP, 2.5 parts poly rA:oligo dT, 2.5 parts reaction buffer and 4 parts distilled water. Ten microliters of this reaction mixture is placed in a round bottom microtiter place and 15 μl of virus containing supernatant is added and mixed. The plate is incubated at 37° C. for 60 minutes. Following reaction, the reaction volume is spotted onto filter mats, washed 6 times for 5 minutes each in a 5% sodium phosphate buffer, 2 times for 1 minute each in distilled water, 2 times for 1 minute each in 70% ethanol, and then dried. The dried filter mat is placed in a plastic sample bag, Betaplate scintillation fluid is added and the bag is heat sealed. Incorporated radioactivity is quantified utilizing a Wallac Microbeta scintillation counter.\nAcute infection of most established human cell lines with HIV-1 results in the eventual establishment of a constitutive virus-producing chronically infected cell line. The cells can be passaged for long periods of time in culture without loss of virus production. These cells may be utilized to evaluate the effects of anti-HIV compounds on syncytium formation or to evaluate the effects of anti-HIV compounds on levels of virus production from these cells. […] Each of the cells contains an integrated HIV genome or provirus. Chronically infected CEM, H9 and U937 cell lines have been prepared and cultured by Southern Research Institute, Frederick Md. and are available from them.\nCEM-SS cells chronically infected with HIV isolate, for example SKI (CEM-SKI) are cultured in RPMI1640 tissue culture medium supplemented with 10% fetal bovine serum and antibiotics. […] CEM-SKI or other infected cells with no added drug are used as the control cells. Cells are allowed to grow to a density of approximately 1×10^6 cells/ml and are then passaged at a 1:10 dilution. […] The drug concentration in the flask is then increased two-fold and the cells maintained as above.\nThe cell populations contain integrated copies of the HIV genome and constitutively produce HIV at relatively high levels or are latently infected and only produce virus after stimulation with phorbol esters, tumor necrosis factor or IL6 (U1 and ACH2). Reductions in virus products were observed when quantifying supernatant reverse transcriptase activity,\nA long term in vitro study of 2-(2-thienyl)-imidazolo [4,5-b]pyridine against an HIV-1 cell line, CEMIIIB was conducted at three different levels. The results with CEMIIIB cells were reported at weekly intervals. The CEMIIIB is a viral strain of the CEMSS cell line and is a chronic HIV cell line."}, "HIV-1 protease": {"target": "T1, HIV-1 protease (Human immunodeficiency virus type 1 group M subtype B, UniProt P04585)", "T1 construct": "precludes use of the fluorometric HIV-1 protease assay; purchased Bachem", "assay": "Protease inhibition assay (fluorometric)", "type": "biochemical", "details": "for Protease Inhibition, sample reading: sample 1, sample 2", "method": "Protease inhibition is evaluated using a fluorometric method. Enzyme (Bachem) is diluted to 116 μgm/ml in 50 mM NaOAC, 5 mM DTT, 2 mM EDTA, 10% glycerol (pH 5.0) and stored as 10 μl samples at −20° C., HIV protease substrates I (Molecular Probes) is diluted to a working concentration of 0.32 nmoles/μl. Enzyme (20 μl) and drug (20 μl) are added to each well of a microtiter plate as appropriate. Positive and negative controls are evaluated in parallel. Fluorescence is quantitated on Labsystems Fluroskan II using 355 nm/460 nm at 37° C. at time zero and at 30 minute intervals for 2 hours. In instances where autofluorescence precludes use of the fluorometric HIV-1 protease assay or confirmation of a result is required, an HPLC based protease assay can be employed."}},
  "note": "Where “and” joins values, the source holds several entries; their conditions need not be identical. Identical values can stand only once.",
  "data": [
    {"compound": "c1csc(-c2nc3cccnc3[nH]2)c1", "note": "[2-(2-thienyl)-imidazolo [4,5-b]pyridine]", "values": [
      {"measurement": "reverse transcriptase data", "setting": "HIV-1 cell line, CEMIIIB; 7 μg/ml, day 4", "result": 4631},
      {"measurement": "reverse transcriptase data", "setting": "HIV-1 cell line, CEMIIIB; 7 μg/ml, day 11", "result": 4222},
      {"measurement": "reverse transcriptase data", "setting": "HIV-1 cell line, CEMIIIB; 7 μg/ml, day 18", "result": 843},
      {"measurement": "reverse transcriptase data", "setting": "HIV-1 cell line, CEMIIIB; 7 μg/ml, day 25", "result": 1052},
      {"measurement": "reverse transcriptase data", "setting": "HIV-1 cell line, CEMIIIB; 7 μg/ml, day 32", "result": 1456},
      {"measurement": "reverse transcriptase data", "setting": "HIV-1 cell line, CEMIIIB; 7 μg/ml, day 39", "result": 4298},
      {"measurement": "reverse transcriptase data", "setting": "HIV-1 cell line, CEMIIIB; 7 μg/ml, day 46", "result": 1643},
      {"measurement": "reverse transcriptase data", "setting": "HIV-1 cell line, CEMIIIB; 7 μg/ml, day 53", "result": 1458},
      {"measurement": "reverse transcriptase data", "setting": "HIV-1 cell line, CEMIIIB; 7 μg/ml, day 60", "result": 1409},
      {"measurement": "reverse transcriptase data", "setting": "HIV-1 cell line, CEMIIIB; 7 μg/ml, day 67", "result": 1903},
      {"measurement": "reverse transcriptase data", "setting": "HIV-1 cell line, CEMIIIB; 7 μg/ml, day 71", "result": 1832},
      {"measurement": "reverse transcriptase data", "setting": "HIV-1 cell line, CEMIIIB; 7 μg/ml, day 74", "result": 1980},
      {"measurement": "reverse transcriptase data", "setting": "HIV-1 cell line, CEMIIIB; 7 μg/ml, day 88", "result": 1520},
      {"measurement": "reverse transcriptase data", "setting": "HIV-1 cell line, CEMIIIB; 7 μg/ml, day 95", "result": 1367},
      {"measurement": "reverse transcriptase data", "setting": "HIV-1 cell line, CEMIIIB; 7 μg/ml, day 102", "result": 1497},
      {"measurement": "reverse transcriptase data", "setting": "HIV-1 cell line, CEMIIIB; 7 μg/ml, day 109", "result": 1165},
      {"measurement": "reverse transcriptase data", "setting": "HIV-1 cell line, CEMIIIB; 15 μg/ml, day 4", "result": 5622},
      {"measurement": "reverse transcriptase data", "setting": "HIV-1 cell line, CEMIIIB; 15 μg/ml, day 11", "result": 1828},
      {"measurement": "reverse transcriptase data", "setting": "HIV-1 cell line, CEMIIIB; 15 μg/ml, day 18", "result": 683},
      {"measurement": "reverse transcriptase data", "setting": "HIV-1 cell line, CEMIIIB; 15 μg/ml, day 25", "result": 741},
      {"measurement": "reverse transcriptase data", "setting": "HIV-1 cell line, CEMIIIB; 15 μg/ml, day 32", "result": 1005},
      {"measurement": "reverse transcriptase data", "setting": "HIV-1 cell line, CEMIIIB; 15 μg/ml, day 39", "result": 948},
      {"measurement": "reverse transcriptase data", "setting": "HIV-1 cell line, CEMIIIB; 15 μg/ml, day 46", "result": 1361},
      {"measurement": "reverse transcriptase data", "setting": "HIV-1 cell line, CEMIIIB; 15 μg/ml, day 53", "result": 1281},
      {"measurement": "reverse transcriptase data", "setting": "HIV-1 cell line, CEMIIIB; 15 μg/ml, day 60", "result": 679},
      {"measurement": "reverse transcriptase data", "setting": "HIV-1 cell line, CEMIIIB; 15 μg/ml, day 67", "result": 1251},
      {"measurement": "reverse transcriptase data", "setting": "HIV-1 cell line, CEMIIIB; 15 μg/ml, day 71", "result": 1241},
      {"measurement": "reverse transcriptase data", "setting": "HIV-1 cell line, CEMIIIB; 15 μg/ml, day 74", "result": 1361},
      {"measurement": "reverse transcriptase data", "setting": "HIV-1 cell line, CEMIIIB; 15 μg/ml, day 88", "result": 1201},
      {"measurement": "reverse transcriptase data", "setting": "HIV-1 cell line, CEMIIIB; 15 μg/ml, day 95", "result": 562},
      {"measurement": "reverse transcriptase data", "setting": "HIV-1 cell line, CEMIIIB; 15 μg/ml, day 102", "result": 1043},
      {"measurement": "reverse transcriptase data", "setting": "HIV-1 cell line, CEMIIIB; 15 μg/ml, day 109", "result": 1036},
      {"measurement": "reverse transcriptase data", "setting": "HIV-1 cell line, CEMIIIB; 30 μg/ml, day 4", "result": 1968},
      {"measurement": "reverse transcriptase data", "setting": "HIV-1 cell line, CEMIIIB; 30 μg/ml, day 11", "result": 2145},
      {"measurement": "reverse transcriptase data", "setting": "HIV-1 cell line, CEMIIIB; 30 μg/ml, day 18", "result": 554},
      {"measurement": "reverse transcriptase data", "setting": "HIV-1 cell line, CEMIIIB; 30 μg/ml, day 25", "result": 436},
      {"measurement": "reverse transcriptase data", "setting": "HIV-1 cell line, CEMIIIB; 30 μg/ml, day 32", "result": 712},
      {"measurement": "reverse transcriptase data", "setting": "HIV-1 cell line, CEMIIIB; 30 μg/ml, day 39", "result": 520},
      {"measurement": "reverse transcriptase data", "setting": "HIV-1 cell line, CEMIIIB; 30 μg/ml, day 46", "result": 281},
      {"measurement": "reverse transcriptase data", "setting": "HIV-1 cell line, CEMIIIB; 30 μg/ml, day 53", "result": 543},
      {"measurement": "reverse transcriptase data", "setting": "HIV-1 cell line, CEMIIIB; 30 μg/ml, day 60", "result": 406},
      {"measurement": "reverse transcriptase data", "setting": "HIV-1 cell line, CEMIIIB; 30 μg/ml, day 67", "result": 391},
      {"measurement": "reverse transcriptase data", "setting": "HIV-1 cell line, CEMIIIB; 30 μg/ml, day 71", "result": 281},
      {"measurement": "reverse transcriptase data", "setting": "HIV-1 cell line, CEMIIIB; 30 μg/ml, day 74", "result": 651},
      {"measurement": "reverse transcriptase data", "setting": "HIV-1 cell line, CEMIIIB; 30 μg/ml, day 88", "result": 241},
      {"measurement": "reverse transcriptase data", "setting": "HIV-1 cell line, CEMIIIB; 30 μg/ml, day 95", "result": 102},
      {"measurement": "reverse transcriptase data", "setting": "HIV-1 cell line, CEMIIIB; 30 μg/ml, day 102", "result": 256},
      {"measurement": "reverse transcriptase data", "setting": "HIV-1 cell line, CEMIIIB; 30 μg/ml, day 109", "result": 376},
      {"measurement": "reverse transcriptase data on continuation (in words)", "setting": "HIV-1 cell line, CEMIIIB; run through 242 days", "result": "data remained consistent"},
      {"measurement": "Protease Inhibition, mean", "setting": "HIV-1 protease; 1 nM", "result": 24.7},
      {"measurement": "Protease Inhibition, sample reading", "setting": "HIV-1 protease; 1 nM", "result": "27.1 and 22.4"},
      {"measurement": "Protease Inhibition, mean", "setting": "HIV-1 protease; 10 nM", "result": 36.7},
      {"measurement": "Protease Inhibition, sample reading", "setting": "HIV-1 protease; 10 nM", "result": "33.2 and 40.2"},
      {"measurement": "Protease Inhibition, mean", "setting": "HIV-1 protease; 100 nM", "result": 76.1},
      {"measurement": "Protease Inhibition, sample reading", "setting": "HIV-1 protease; 100 nM", "result": "75.4 and 76.8"},
      {"measurement": "Protease Inhibition, mean", "setting": "HIV-1 protease; 1000 nM", "result": 213.8},
      {"measurement": "Protease Inhibition, sample reading", "setting": "HIV-1 protease; 1000 nM", "result": "219.4 and 208.2"}
    ]}
  ]
}
